*1 amine or outer side, *2 acyl side, *3 side chain or, on linkers, in order; H or OH if unused. Where a SMILES comes first, the peptide text is derived from it. [ ]: non-standard residue; d: D form. The star is where a group is joined. ξ: configuration not given here. Ala(piperidin-4-yl) = O=C([C@H](CC1CCN([*:3])CC1)N[*:1])[*:2]; Gly(1-amidinopiperidin-4-yl) = N=C(N)N1CCC([C@H](N)C(=O)O)CC1; Ala(1-amidino-4-piperidyl) = N=C(N)N1CCC(C[C@H](N)C(=O)O)CC1; DTPA = O=C(O)CN(CCN(CC(=O)O)CC(=O)O)CCN(CC(=O)O)CC(=O)*; Phe(4-guanidino) = N=C(N)Nc1ccc(C[C@H](N)C(=O)O)cc1; ξGly(4-Pip(1-amidino)) = N=C(N)N1CCC(C(N)C(=O)O)CC1; X2 = NC[C@H]1CC[C@H](C[C@H](N[*:1])C(=O)[*:2])CC1; X1 = CC(C)C[C@@H](CN[C@@H](CC(C)C)C(N)=O)N*; X3 = CC[C@H](C)[C@@H](COC(=O)[*:2])N[*:1]; Chg = N[C@H](C(=O)O)C1CCCCC1; Tle = CC(C)(C)[C@H](N)C(=O)O; NHOH = ON*
Columns and labels:
[1] = In vitro urine stability assay (HPLC) of In-111 labeled peptide; format: in vitro ADME; conditions: for remaining at 4 h: rat, t = 4 h
Description: (§1) All reagents were purchased from Sigma unless otherwise noted. The peptide and ^111InCl3 in 0.05 N HCl were incubated in a sodium acetate/ascorbic acid buffer for 30 minutes at room temperature. The reaction was diluted with 5% ethanol/95% PBS before using in subsequent in vitro assays.
(§2) Human serum was purchased from Sigma (H 1388). The labeled peptide was incubated in either human serum or rat urine at 37EC for the specified amount of time. An aliquot was filtered through a 0.45 μm syringe filter prior to HPLC injection.

[2] = In vitro serum stability assay (HPLC) of In-111 labeled peptide; format: in vitro ADME, human; conditions: for remaining at 4 h: t = 4 h
Description: as §1, §2

[3] = 37EC, read-out: HPLC Evaluation of Urine Stability at 37EC, Urine, t = 4 h
[4] = human serum, 37EC, read-out: HPLC Evaluation of Serum Stability at 37EC, Serum, t = 4 h
[5] = Table 4, rat urine, read-out: Urine Stability, Urine (t = 4 h)
[6] = Table 4, human serum, read-out: Serum Stability, Serum (t = 4 h)

Row | SMILES | % of peptide at 4 hours after incubation at 37EC, Urine ([1]; rat urine, 37EC, 4 hours) | % of peptide at 4 hours after incubation at 37EC, Serum ([2]; human serum, 37EC, 4 hours) | remaining at 4 h [1, 3] | remaining at 4 h [2, 4] | other results
1 | CC(C)C[C@H](NC(=O)[C@@H](NC(=O)[C@H](Cc1ccc(O)cc1)NC(=O)[C@@H]1CCCN1C(=O)[C@H](CCCNC(=N)N)NC(=O)C(NC(=O)[C@@H]1CCCN1C(=O)[C@@H](CCCCN)NC(=O)CN(CCN(CCN(CC(=O)O)CC(=O)O)CC(=O)O)CC(=O)O)C1CCN(C(=N)N)CC1)C(C)(C)C)C(=O)NO (stereo partly drawn) [DTPA-DLys-Pro-Gly(PipAm)-Arg-Pro-Tyr-tBuGly-Leu-HA] ({DTPA}-[dK]P[ξGly(4-Pip(1-amidino))]RPY[Tle]L-{NHOH}) | 60.2% | 89.2% |  |  | 
2 | CC(C)C[C@H](NC(=O)[C@@H](NC(=O)[C@H](Cc1ccc(O)cc1)NC(=O)[C@@H]1CCCN1C(=O)[C@H](CCCNC(=N)N)NC(=O)C(NC(=O)[C@@H]1CCCN1C(=O)[C@@H](CCCCN)NC(=O)CN(CCN(CCN(CC(=O)O)CC(=O)O)CC(=O)O)CC(=O)O)C1CCN(C(=N)N)CC1)C1CCCCC1)C(=O)O (stereo partly drawn) [DTPA-DLys-Pro-Gly(PipAm)-Arg-Pro-Tyr-Chg-Leu-OH] ({DTPA}-[dK]P[ξGly(4-Pip(1-amidino))]RPY[Chg]L-OH) | 7.0% | 75.2% |  |  | 
3 | CC[C@H](C)[C@H](NC(=O)[C@H](Cc1ccc(O)cc1)NC(=O)[C@@H]1CCCN1C(=O)[C@H](CCCNC(=N)N)NC(=O)[C@H](CCCNC(=N)N)NC(=O)CN(CCN(CCN(CC(=O)O)CC(=O)O)CC(=O)O)CC(=O)O)C(=O)N[C@@H](CC(C)C)C(=O)O [DTPA-Arg-Arg-Pro-Tyr-Ile-Leu-OH, reference compound] | 13.0% | 1.6% |  |  | % of compound present at 4 hours in urine ([1]; rat urine, 37EC, 4 hours): 13.0%; % of compound present at 4 hours in serum ([2]; human serum, 37EC, 4 hours): 1.6%
4 | CC[C@H](C)[C@H](NC(=O)[C@H](Cc1ccc(O)cc1)NC(=O)[C@@H]1CCCN1C(=O)[C@H](CCCN=C(N)N)NC(=O)[C@H](Cc1ccc(NC(=N)N)cc1)NC(=O)[C@@H]1CCCN1C(=O)[C@@H](CCCCN)NC(=O)CN(CCN(CCN(CC(=O)O)CC(=O)O)CC(=O)O)CC(=O)O)C(=O)N[C@@H](CC(C)C)C(=O)O [In-111-DTPA-DK-P-F(Gu)-R-P-Y-I-L, metal not drawn] |  |  | 1.5% | 14.1% | HPLC Evaluation of Urine Stability at 37EC, Urine, t = 0 ([1]; rat urine): 94.1%; HPLC Evaluation of Serum Stability at 37EC, Serum, t = 0 ([2]; human serum): 98.7%
5 | CC(C)C[C@@H](CN[C@@H](CC(C)C)C(N)=O)NC(=O)[C@H](Cc1ccc(O)cc1)NC(=O)[C@@H]1CCCN1C(=O)[C@H](CCCNC(=N)N)NC(=O)[C@H](Cc1ccc(NC(=N)N)cc1)NC(=O)[C@@H]1CCCN1C(=O)[C@@H](CCCCN)NC(=O)CN(CCN(CCN(CC(=O)O)CC(=O)O)CC(=O)O)CC(=O)O [In-111-DTPA-DK-P-F(Gu)-R-P-Y-L(Ψ-CH2NH)-L-NH2, metal not drawn] ({DTPA}-[dK]P[Phe(4-guanidino)]RPY-X1) |  |  |  |  | remaining at 4 h [1, 5]: 95.7%; remaining at 4 h [2, 6]: 76.2%
6 | CC[C@H](C)[C@H](NC(=O)[C@H](Cc1ccc(O)cc1)NC(=O)[C@@H]1CCCN1C(=O)C(Cc1ccc(NC(=N)N)cc1)NC(=O)[C@H](CCCNC(=N)N)NC(=O)[C@@H]1CCCN1C(=O)[C@@H](CCCCN)NC(=O)CN(CCN(CCN(CC(=O)O)CC(=O)O)CC(=O)O)CC(=O)O)C(=O)N[C@@H](CC(C)C)C(=O)O (single isomer, unassigned) [In-111-DTPA-DK-P-R-F(Gu)-P-Y-I-L, metal not drawn] |  |  | 0% | 16.3% | HPLC Evaluation of Urine Stability at 37EC, Urine, t = 0 ([1]; rat urine): 90.4%; HPLC Evaluation of Serum Stability at 37EC, Serum, t = 0 ([2]; human serum): 94%
7 | CC(C)C[C@H](NC(=O)[C@@H](NC(=O)[C@H](Cc1ccc(O)cc1)NC(=O)[C@@H]1CCCN1C(=O)[C@H](CCCNC(=N)N)NC(=O)[C@@H](NC(=O)[C@@H]1CCCN1C(=O)[C@H](C[C@H]1CC[C@H](CN)CC1)NC(=O)CN(CCN(CCN(CC(=O)O)CC(=O)O)CC(=O)O)CC(=O)O)C1CCN(C(=N)N)CC1)C(C)(C)C)C(=O)O [Compound XII, DTPA-trans-Cha(4-CH2NH2)-Pro-Gly(PipAm)-Arg-Pro-Tyr-tBuGly-Leu-OH] ({DTPA}-[X2]P[Gly(1-amidinopiperidin-4-yl)]RPY[Tle]L-OH) | 89.4% | 94.8% |  |  | 
8 | CC[C@H](C)[C@@H](COC(=O)N[C@@H](CC(C)C)C(=O)O)NC(=O)[C@H](Cc1ccc(O)cc1)NC(=O)[C@@H]1CCCN1C(=O)[C@H](CCCNC(=N)N)NC(=O)[C@@H](NC(=O)[C@@H]1CCCN1C(=O)[C@@H](CCCCN)NC(=O)CN(CCN(CCN(CC(=O)O)CC(=O)O)CC(=O)O)CC(=O)O)C1CCN(C(=N)N)CC1 [DTPA-DLys-Pro-Gly(PipAm)-Arg-Pro-Tyr-Ile^R-OCO-Leu-OH] ({DTPA}-[dK]P[Gly(1-amidinopiperidin-4-yl)]RPY[X3]L-OH) | 89.8% | 94.6% |  |  | 
9 | CC(C)C[C@H](NC(=O)[C@@H](NC(=O)[C@H](Cc1ccc(O)cc1)NC(=O)[C@@H]1CCCN1C(=O)[C@H](CCCNC(=N)N)NC(=O)[C@@H](NC(=O)[C@@H]1CCCN1C(=O)[C@H](CC1CCNCC1)NC(=O)CN(CCN(CCN(CC(=O)O)CC(=O)O)CC(=O)O)CC(=O)O)C1CCN(C(=N)N)CC1)C(C)(C)C)C(=O)O [DTPA-(Pip)Ala-Pro-Gly(PipAm)-Arg-Pro-Tyr-tBuGly-Leu-OH] ({DTPA}-[Ala(piperidin-4-yl)]P[Gly(1-amidinopiperidin-4-yl)]RPY[Tle]L-OH) | 98.3% | 98.9% |  |  | 
10 | CC[C@H](C)[C@H](NC(=O)[C@H](Cc1ccc(O)cc1)NC(=O)[C@@H]1CCCN1C(=O)[C@H](CCCNC(=N)N)NC(=O)C(NC(=O)[C@@H]1CCCN1C(=O)[C@@H](CCCCN)NC(=O)CN(CCN(CCN(CC(=O)O)CC(=O)O)CC(=O)O)CC(=O)O)C1CCN(C(=N)N)CC1)C(=O)N[C@@H](CC(C)C)C(=O)O (single isomer, unassigned) [In-111-DTPA-DK-P-G(PipAm)-R-P-Y-I-L, metal not drawn] |  |  | 16.6% | 19.5% | 
11 | CC(C)C[C@H](NC(=O)[C@@H](NC(=O)[C@H](Cc1ccc(O)cc1)NC(=O)[C@@H]1CCCN1C(=O)[C@H](CCCN=C(N)N)NC(=O)[C@H](Cc1ccc(NC(=N)N)cc1)NC(=O)[C@@H]1CCCN1C(=O)[C@@H](CCCCN)NC(=O)CN(CCN(CCN(CC(=O)O)CC(=O)O)CC(=O)O)CC(=O)O)C(C)(C)C)C(=O)O [In-111-DTPA-DK-P-F(Gu)-R-P-Y-tBuG-L, metal not drawn] ({DTPA}-[dK]P[Phe(4-guanidino)]RPY[Tle]L-OH) |  |  |  |  | remaining at 4 h [1, 5]: 51.1%; remaining at 4 h [2, 6]: 72%
12 | CC(C)C[C@@H](CN[C@@H](CC(C)C)C(N)=O)NC(=O)[C@H](Cc1ccc(O)cc1)NC(=O)[C@@H]1CCCN1C(=O)[C@H](CCCNC(=N)N)NC(=O)[C@H](Cc1ccc(NC(=N)N)cc1)NC(=O)[C@@H]1CCCN1C(=O)[C@@H](CCCCN)NC(=O)CN(CCN(CCN(CC(=O)O)CC(=O)O)CC(=O)O)CC(=O)O [DTPA-DLys-Pro-(4-Gu)Phe-Arg-Pro-Tyr-Leu-(Ψ-CH2-NH)-Leu-OH] ({DTPA}-[dK]P[Phe(4-guanidino)]RPY-X1; C-terminus assumed) | 95.7% | 76.2% |  |  | 
13 | CC(C)C[C@H](NC(=O)[C@@H](NC(=O)[C@H](Cc1ccc(O)cc1)NC(=O)[C@@H]1CCCN1C(=O)[C@H](CCCNC(=N)N)NC(=O)C(NC(=O)[C@@H]1CCCN1C(=O)[C@@H](CCCCN)NC(=O)CN(CCN(CCN(CC(=O)O)CC(=O)O)CC(=O)O)CC(=O)O)C1CCN(C(=N)N)CC1)C(C)(C)C)C(=O)O (single isomer, unassigned) [In-111-DTPA-DK-P-G(PipAm)-R-P-Y-tBuG-L, metal not drawn] |  |  |  |  | remaining at 4 h [1, 5]: 63%; remaining at 4 h [2, 6]: 87.5%
14 | CC(C)C[C@H](NC(=O)[C@@H](NC(=O)[C@H](Cc1ccc(O)cc1)NC(=O)[C@@H]1CCCN1C(=O)[C@H](CCCNC(=N)N)NC(=O)[C@H](CC1CCN(C(=N)N)CC1)NC(=O)[C@@H]1CCCN1C(=O)[C@@H](CCCCN)NC(=O)CN(CCN(CCN(CC(=O)O)CC(=O)O)CC(=O)O)CC(=O)O)C(C)(C)C)C(=O)O [DTPA-DLys-Pro-Ala(PipAm)-Arg-Pro-Tyr-tBuGly-Leu-OH] ({DTPA}-[dK]P[Ala(1-amidino-4-piperidyl)]RPY[Tle]L-OH) | 89.8% | 96.5% |  |  | 
15 | CC[C@H](C)[C@H](NC(=O)[C@H](Cc1ccc(O)cc1)NC(=O)[C@@H]1CCCN1C(=O)[C@H](Cc1ccc(NC(=N)N)cc1)NC(=O)[C@H](Cc1ccc(NC(=N)N)cc1)NC(=O)[C@@H]1CCCN1C(=O)[C@@H](CCCCN)NC(=O)CN(CCN(CCN(CC(=O)O)CC(=O)O)CC(=O)O)CC(=O)O)C(=O)N[C@@H](CC(C)C)C(=O)O [In-111-DTPA-DK-P-F(Gu)-F(Gu)-P-Y-I-L, metal not drawn] ({DTPA}-[dK]P[Phe(4-guanidino)][Phe(4-guanidino)]PYIL-OH; C-terminus assumed) |  |  | 2.3% | 25.2% | HPLC Evaluation of Urine Stability at 37EC, Urine, t = 0 ([1]; rat urine): 92.3%; HPLC Evaluation of Serum Stability at 37EC, Serum, t = 0 ([2]; human serum): 99.0%
16 | CC[C@H](C)[C@H](NC(=O)[C@H](Cc1ccc(O)cc1)NC(=O)[C@@H]1CCCN1C(=O)C(CCc1ccnc(N)n1)NC(=O)[C@H](CCCNC(=N)N)NC(=O)[C@@H]1CCCN1C(=O)[C@@H](CCCCN)NC(=O)CN(CCN(CCN(CC(=O)O)CC(=O)O)CC(=O)O)CC(=O)O)C(=O)N[C@@H](CC(C)C)C(=O)O (single isomer, unassigned) [In-111-DTPA-DK-P-R-Aba(Apy)-P-Y-I-L, metal not drawn] |  |  | 4.7% | 15.7% | HPLC Evaluation of Urine Stability at 37EC, Urine, t = 0 ([1]; rat urine): 96.7%; HPLC Evaluation of Serum Stability at 37EC, Serum, t = 0 ([2]; human serum): 98.1%

Source: patent US7015306B2 (BioSynthema, Inc., priority 1999, dated 2006)
